Values after ≈ are worked out from the molar mass of the structure shown. Read-outs that look alike come from different tables or passages of the source. Where no end group is shown, it is not given here.
How the values were obtained:
[1] = tested on: A. baumannii (clin. isol.); assay: microbe, parasite or virus in culture; assay type: cell-based, Acinetobacter baumannii
Method: (§6) Prior to the “checkerboard” synergy test the minimal inhibitory concentrations (MIC) of individual substances were determined using broth microdilution assay. Testing was performed in 60-well polystyrene Terasaki microplates with V-shaped bottom generally according to the guidelines of the European Committee for Antimicrobial Susceptibility Testing with subtle modifications designed for AMP testing (Tossi et al., [1997]; Wiegand et al., [2008]). Cultivation of bacteria was carried out in 2.1% Müller-Hinton broth at 37°C with shaking. Two-fold serial dilutions of peptides, antibiotics and other antimicrobials were made with 10 mM sodium phosphate buffer, pH 7.4, containing 0.1% of BSA. The plates were preliminary incubated with 0.1% BSA for 1 h at 37°C to reduce a non-specific binding of peptides to the plates. After that BSA was removed, and serial dilutions were added into the plate wells in triplicates followed by the same volume of the suspension of bacterial cells in logarithmic phase of growth in concentration of 1 × 10^6 CFU/ml. After the 18 h overnight incubation at 37°C, the MIC value for each compound was determined as its lowest concentration completely inhibiting the visible growth of bacteria. The final results were calculated as median values based on 3–6 independent experiments.

MRSA ATCC 33591 = assay: microbe, parasite or virus in culture; assay type: cell-based, Staphylococcus aureus; settings: median of 3–6 experiments, square brackets = twice the maximal tested concentration
Method: as §6

M. luteus CIP A270 = assay: microbe, parasite or virus in culture; assay type: cell-based, Micrococcus luteus
Method: as §6

Human PBMC = assay: MTT-test
Method: To obtain neutrophils and mononuclear cells, whole heparinized blood was diluted with sterile PBS in a 1:1 ratio and carefully inserted into the sterile polystyrene 50 ml tube upon the 5 ml of the sterile Ficoll-400 (Pharmacia, Sweden) with a density of 1.077. The tube was centrifuged at 600 g and 4°C for 40 min. After separation, the mononuclear “ring” located between the blood plasma and Ficoll was collected with a Pasteur pipette, transferred to another tube, and washed twice with 10 ml of sterile PBS by centrifugation for 10 min at 300 g and 4°C.
(§1) We calculated Fractional Effective Concentration Index (FECI), which could be seen as a particular case of the interaction index (I) proposed by Berenbaum ([1977]) or of the similar combination index (CI) proposed by Chou and Talalay ([1983]), according to the equation below: […]
(§2) Here, [MEC A] and [MEC B] are the minimum effective concentrations (MEC) of substances A and B, when they are used alone. […] [A] and [B] are respective concentrations of substances A and B in their combination, where the same statistically significant difference is detected. A non-parametric Mann-Whitney U-test (p < 0.05 or p < 0.01) was used for the mentioned statistical comparison.
(§3) We have chosen the same intervals as that of FICI to determine synergy, additivity, independent action, and antagonism based on the minimal FECI values. However, in case of cytotoxic or hemolytic effect we were interested mainly in testing the possibility of additive or synergistic interaction itself, and not in assessing the exact magnitude of such interaction. Thus, in contrast to the “checkerboard titration” method used for combined antimicrobial activity investigation, studying the combined cytotoxic effect, we considered only two combinations of concentrations for the substances A and B in the mixture: • (½ MEC A + ½ MEC B), which, if found effective, provides the FECI value of 1 (the threshold value for additivity); • (¼ MEC A + ¼ MEC B), which, if found effective, provides the FECI value of 0.5 (the threshold value for synergetic interaction).
(§4) When action on tumor cells was tested in combination with antitumor antibiotic the lower concentrations up to ( 1/16 MEC A + 1/16 MEC B) as in checkerboard titration were additionally examined to assess the magnitude of synergistic effect more precisely. The final conclusion was made based on the three independent experiments.
(§5) Standard MTT-test (Mosmann, [1983]) was used for the examination of the cytotoxic activity of antimicrobial compounds and their combinations toward varied eukaryotic cells. Briefly, cell suspensions in RPMI-1640 prepared as described in Eukaryotic Cells were dispensed into the 96-well microplates (2 × 10^5 cells/well). Then, serial dilutions of AMPs, or other antibiotic compounds, or their mixtures in RPMI-1640 were added. In positive controls (100% cell survival) the according volume of RPMI-1640 without test substances was added instead. The final volume in each well was 100 μl. Negative controls (0% cell survival) were made with 100 μl of the sterile RPMI-1640. The plates were incubated at 37°C under 5% CO2 for 24 h. Four hours before the end of incubation, 10 μl of metabolic marker MTT−3-(4,5-dimethylthiazol-2-yl)-2,5-diphenyltetrazolium bromide (5 mg/ml, diluted in PBS) was added to each well. Incubation was stopped by adding 90 μl of isopropanol containing 0.04 M HCl. Content of the wells was thoroughly mixed, so that the formazan crystals, formed in case of the reduction of MTT in presence of actively metabolizing cells, were fully dissolved. The optical density of the samples was evaluated at 540 nm, subtracting the background absorbance at 690 nm, by SpectraMax 250 Spectrophotometer (Molecular Devices, USA). The experiments were repeated at least three times. In each experiment test samples were made in triplicates and control samples were made in hexaplicates.

K562 = K562 tumor cells (doxorubicin-sensitive); MTT, 24 h
Method: The human erythromyeloid leukemia cell line K562 was obtained from the collection of the Institute of Cytology RAS (Saint Petersburg, Russia) and cultured in RPMI-1640 medium containing gentamicin (100 μg/ml) and 10% of fetal bovine serum at 37°C, 5% CO2. […] Drug resistance was maintained by monthly selection with the antibiotic (2 μg/ml in the culturing medium). Doxorubicin was removed from the medium 3 days prior to beginning any experiments. Before the testing K562 cells were washed twice with PBS and resuspended in RPMI-1640 in the same way as the other cell types.
as §1, §2, §3, §4
as §5, with “dissolved.” for “dissolved. The optical density of the samples was evaluated at 540 nm, subtracting the background absorbance at 690 nm, by SpectraMax 250 Spectrophotometer (Molecular Devices, USA). The experiments were repeated at least three times. In each experiment test samples were made in triplicates and control samples were made in hexaplicates.”

Murine EAC = assay: MTT-test; assay type: cell-based, mice; settings: Murine EAC tumor cells, 24 h
Method: Before the cells extraction, mice were sacrificed by cervical dislocation in accordance with the supplement to the Directive 86/609/EEC and its update Directive 2010/63/EU addressing the recommendations for euthanasia of experimental animals (Close et al., [1996]). To obtain peritoneal macrophages, healthy mice were used. The abdominal cavity of each animal was washed with 3 ml of sterile PBS using a Pasteur pipette. The culture of EAC cells was kindly provided by Dr. E.P. Kiseleva (Immunology Department of the Institute of Experimental Medicine, Saint Petersburg, Russia). On the tenth day after the intraperitoneal tumor inoculation, 0.5–1.5 ml of ascitic fluid containing EAC cells was obtained from the abdominal cavity of the animals. Murine cells (normal or tumor) were washed twice with 10 ml of sterile PBS and resuspended in RPMI-1640 medium as described above for human neutrophils and PBMC.
as §1, §2, §3, §4
as §5, with “dissolved.” for “dissolved. The optical density of the samples was evaluated at 540 nm, subtracting the background absorbance at 690 nm, by SpectraMax 250 Spectrophotometer (Molecular Devices, USA). The experiments were repeated at least three times. In each experiment test samples were made in triplicates and control samples were made in hexaplicates.”

[2] = A. baumannii (clin. isol.), susceptible, median of 3–6 experiments, read-out: MIC
[3] = Human PBMC, normal cells, MTT, 24 h, square brackets = twice the maximal tested concentration
[4] = Acinetobacter baumannii, A. baumannii (clin. isol.), susceptible, median of 3–6 experiments, read-out: MIC
[5] = Staphylococcus aureus, read-out: MIC
[6] = Micrococcus luteus, CIPA270, median of 3–6 experiments

Row | Compound | MIC [1, 2] [µM] | MIC (MRSA ATCC 33591; read-out: MIC) [µM] | MIC (M. luteus CIP A270; median of 3–6 experiments) [µM] | MEC of cytotoxic action (Human PBMC; [3]) [µM] | MEC of cytotoxic action (K562) | MEC of cytotoxic action (Murine EAC) | MIC [1, 4] [µM] | MIC (MRSA ATCC 33591; [5]) [µM] | MIC (M. luteus CIP A270; [6]) [µM] | MEC of cytotoxic action (Human PBMC; human, 24 h) | MEC of cytotoxic action (Human PBMC) | MIC ([1]; Acinetobacter baumannii) [µM] | MIC (MRSA ATCC 33591)
1 | Polymyxin B | 1.25 | 12.5 | 0.6 | 50 | 25 µM | 50 µM |  |  |  |  |  |  | 
2 | CNC(C)C1CCC(N)C(OC2C(N)CC(N)C(OC3OCC(C)(O)C(NC)C3O)C2O)O1 (stereo not drawn) [Gentamicin] |  |  |  |  | 50 µM | >50 [100] μM | 0.06 (≈ 0.0287 µg/mL) | 0.16 (≈ 0.0764 µg/mL) | 0.16 (≈ 0.0764 µg/mL) | >50 [100] μM |  |  | 
3 | RFRLPFRRPPIRIHPPPFYPPFRRFL-NH2 (C-terminus assumed) [ChBac3.4] |  |  |  |  | 20 µM | 5.0 µM |  |  |  |  | 20 µM |  | 
4 | CC1COc2c(N3CCN(C)CC3)c(F)cc3c(=O)c(C(=O)O)cn1c23 (stereo not drawn) [Ofloxacin] |  |  |  |  | >50 [100] μM | >50 [100] μM | 0.3 (≈ 0.108 µg/mL) | 0.625 (≈ 0.226 µg/mL) | 5 (≈ 1.81 µg/mL) | >50 [100] μM |  |  | 
5 | CO[C@H]1/C=C/O[C@@]2(C)Oc3c(C)c(O)c4c(O)c(c(/C=N/N5CCN(C)CC5)c(O)c4c3C2=O)NC(=O)/C(C)=C\C=C\[C@H](C)[C@H](O)[C@@H](C)[C@@H](O)[C@@H](C)[C@H](OC(C)=O)[C@@H]1C [Rifampicin] |  |  |  |  | >20 [40] μM | >20 [40] μM |  | 0.003 (≈ 0.00247 µg/mL) | 0.003 (≈ 0.00247 µg/mL) | >20 [40] μM |  | 0.125 (≈ 0.103 µg/mL) | 
6 | Cc1onc(-c2ccccc2)c1C(=O)N[C@@H]1C(=O)N2[C@@H]1SC(C)(C)[C@@H]2C(=O)O [Oxacillin] |  |  |  |  | >50 [100] μM | >50 [100] μM | 25 (≈ 10 µg/mL) | 7.5 (≈ 3.01 µg/mL) | 3.1 (≈ 1.24 µg/mL) | >50 [100] μM |  |  | 
7 | Lysozyme: egg white lysozyme, antimicrobial protein, from BioChemica | 1.2 |  | 0.08 |  | >50 [100] μM | 50 µM |  |  |  |  | >50 [100] μM |  | >250 [500] μM
8 | CC[C@H](C)[C@H](NC(=O)[C@H](CCCCN)NC(=O)[C@H](CCC(=O)O)NC(=O)[C@H](CCCCN)NC(=O)[C@H](CO)NC(=O)[C@H](CCCCN)NC(=O)[C@H](CCCNC(=N)N)NC(=O)[C@H](Cc1ccccc1)NC(=O)[C@H](Cc1ccccc1)NC(=O)[C@H](CC(=O)O)NC(=O)CNC(=O)[C@H](CC(C)C)NC(=O)[C@@H](N)CC(C)C)C(=O)NCC(=O)N[C@@H](CCCCN)C(=O)N[C@@H](CCC(=O)O)C(=O)N[C@@H](Cc1ccccc1)C(=O)N[C@@H](CCCCN)C(=O)N[C@@H](CCCNC(=N)N)C(=O)N[C@H](C(=O)N[C@H](C(=O)N[C@@H](CCC(N)=O)C(=O)N[C@@H](CCCNC(=N)N)C(=O)N[C@H](C(=O)N[C@@H](CCCCN)C(=O)N[C@@H](CC(=O)O)C(=O)N[C@@H](Cc1ccccc1)C(=O)N[C@@H](CC(C)C)C(=O)N[C@@H](CCCNC(=N)N)C(=O)N[C@@H](CC(N)=O)C(=O)N[C@@H](CC(C)C)C(=O)N[C@H](C(=O)N1CCC[C@H]1C(=O)N[C@@H](CCCNC(=N)N)C(=O)N[C@H](C(=O)N[C@@H](CCC(=O)O)C(=O)N[C@@H](CO)C(=O)O)[C@@H](C)O)C(C)C)[C@@H](C)CC)C(C)C)[C@@H](C)CC [LL-37] |  |  |  | 12 | 5.0 µM | 10 µM |  |  |  |  |  |  | 

Source: paper PMC6503114, “Application of Antimicrobial Peptides of the Innate Immune System in Combination With Conventional Antibiotics—A Novel Way to Combat Antibiotic Resistance?” (Frontiers in Cellular and Infection Microbiology, 2019)
